Reference: publication PMC7377239, “Cardiovascular Effects of Polychlorinated Biphenyls and Their Major Metabolites” (Environmental Health Perspectives, 2020)
Read-outs that look alike come from different tables or passages of the source.

Key:
HUVECs = test: High-content imaging cytotoxicity in HUVECs, 24 h; assay type: cell-based, human; details: Homo sapiens, HUVEC, 24 h, HUVECs; for viability at 0.01 µM / activity at 0.01 µM: concentration 0.01 µM; for viability at 0.01 µM / activity at 0.01 µM / viability at 0.1 µM / activity at 0.1 µM / viability at 1 µM / activity at 1 µM / viability at 10 µM / activity at 10 µM / viability at 100 µM / activity at 100 µM: 0.00 µM = 100.00; for viability at 0.1 µM / activity at 0.1 µM: concentration 0.10 µM; for viability at 1 µM / activity at 1 µM: concentration 1.00 µM; for viability at 10 µM / activity at 10 µM: concentration 10.00 µM; for viability at 100 µM / activity at 100 µM: concentration 100.00 µM; for minimal effective concentration: MAX 100.00
Outline: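 Point-of-departure values derive from four-parameter logistic fits of vehicle-normalized imaging phenotypes (Hoechst 33342, MitoTracker Orange, calcein AM). The fits follow 24 h exposure of HUVEC monolayers at 37°C and 5% CO2, with a top tested concentration of 100μM.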

[1] = test system: iCell endothelial cells (human iPSC-derived ECs); test: High-content imaging cytotoxicity in iCell endothelial cells, 24 h; assay type: cell-based; details: Homo sapiens, Endothelial cell, iPSC-EC; for viability at 0.1 µM / activity at 0.1 µM: 0.10 µM; for minimal effective concentration: 100.00 = highest concentration tested
Outline: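 Human iPSC-derived endothelial cells (passages 1–5) were grown to a fibronectin-coated monolayer, then exposed 24 h at 37 °C with 0.5% DMSO vehicle. Staining was Hoechst 33342, MitoTracker Orange and calcein AM, read by high-content imaging. Point of departure came from 4-parameter logistic fits, with a 1-SD vehicle cutoff and 100 µM as the top concentration.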

[2] = 24 hr, read-out: huvec.cyto.24hr
[3] = 24 hr, read-out: huvec.mito.24hr
[4] = 24 hr, read-out: huvec.mitoint.24hr
[5] = 24 hr, read-out: huvec.nma.24hr
[6] = 24 hrs, read-out: huvec.tc.24hrs
[7] = 0.00 µM = 100.00, read-out: endo.cyto.24hr
[8] = 0.00 µM = 100.00, read-out: endo.mito.24hr
[9] = 0.00 µM = 100.00, read-out: endo.mitoint.24hr
[10] = 0.00 µM = 100.00, read-out: endo.nma.24hr
[11] = 0.00 µM = 100.00, read-out: endo.tc.24hrs

**Q.** Which viability at 0.01 µM (HUVECs; [2]) does the source give for `Clc1ccc(-c2cc(Cl)c(Cl)c(Cl)c2)cc1Cl` [PCB126] here?
**A.** The viability at 0.01 µM was 86.8%.

**Q.** And the activity at 0.01 µM (HUVECs; [3])?
**A.** The activity at 0.01 µM was 85.6%.

**Q.** And the activity at 0.01 µM (HUVECs; [4])?
**A.** Its activity at 0.01 µM is 89%.

**Q.** What about the activity at 0.01 µM (HUVECs; [5]) of the same compound?
**A.** The activity at 0.01 µM was 94.2%.

**Q.** What about the viability at 0.1 µM (HUVECs; [2]) of the same compound?
**A.** The viability at 0.1 µM was 93.4%.

**Q.** What about the activity at 0.1 µM (HUVECs; [3]) of the same compound?
**A.** Its activity at 0.1 µM is 92%.

**Q.** What about the activity at 0.1 µM (HUVECs; [4]) of the same compound?
**A.** Its activity at 0.1 µM is 79.3%.

**Q.** What about the activity at 0.1 µM (HUVECs; [5]) of the same compound?
**A.** The activity at 0.1 µM was 93.5%.

**Q.** What about the viability at 1 µM (HUVECs; [2]) of the same compound?
**A.** Its viability at 1 µM is 93.8%.

**Q.** What about the activity at 1 µM (HUVECs; [3]) of the same compound?
**A.** Its activity at 1 µM is 92.5%.

**Q.** What about the activity at 1 µM (HUVECs; [4]) of the same compound?
**A.** The activity at 1 µM was 83.6%.

**Q.** And the activity at 1 µM (HUVECs; [5])?
**A.** Its activity at 1 µM is 95.2%.

**Q.** What about the viability at 10 µM (HUVECs; [2]) of the same compound?
**A.** Its viability at 10 µM is 91.2%.

**Q.** And the activity at 10 µM (HUVECs; [3])?
**A.** Its activity at 10 µM is 89.7%.

**Q.** What about the activity at 10 µM (HUVECs; [4]) of the same compound?
**A.** Its activity at 10 µM is 74.2%.

**Q.** What about the activity at 10 µM (HUVECs; [5]) of the same compound?
**A.** The activity at 10 µM was 93%.

**Q.** What about the viability at 100 µM (HUVECs; [2]) of the same compound?
**A.** The viability at 100 µM was 57.1%.

**Q.** What about the activity at 100 µM (HUVECs; [3]) of the same compound?
**A.** The activity at 100 µM was 55%.

**Q.** And the activity at 100 µM (HUVECs; [4])?
**A.** Its activity at 100 µM is 96.7%.

**Q.** What about the activity at 100 µM (HUVECs; [5]) of the same compound?
**A.** Its activity at 100 µM is 84.5%.

**Q.** What about the minimal effective concentration (HUVECs; 24 hr, read-out: huvec.cyto.24hr POD) of the same compound?
**A.** Its minimal effective concentration is 5.33 µM.

**Q.** What about the minimal effective concentration (HUVECs; 24 hr, read-out: huvec.mito.24hr POD) of the same compound?
**A.** The minimal effective concentration was 100 µM.

**Q.** What about the minimal effective concentration (HUVECs; 24 hr, read-out: huvec.mitoint.24hr POD) of the same compound?
**A.** Its minimal effective concentration is 100 µM.

**Q.** And the minimal effective concentration (HUVECs; 24 hr, read-out: huvec.nma.24hr POD)?
**A.** The minimal effective concentration was 100 µM.

**Q.** And the viability at 0.01 µM (HUVECs; [6])?
**A.** Its viability at 0.01 µM is 86.9%.

**Q.** What about the viability at 0.1 µM (HUVECs; [6]) of the same compound?
**A.** The viability at 0.1 µM was 93.4%.

**Q.** What about the viability at 1 µM (HUVECs; [6]) of the same compound?
**A.** The viability at 1 µM was 93.8%.

**Q.** What about the viability at 10 µM (HUVECs; [6]) of the same compound?
**A.** Its viability at 10 µM is 91.4%.

**Q.** And the viability at 100 µM (HUVECs; [6])?
**A.** Its viability at 100 µM is 57.3%.

**Q.** What about the minimal effective concentration (HUVECs; 24 hrs, read-out: huvec.tc.24hrs POD) of the same compound?
**A.** The minimal effective concentration was 5.33 µM.

**Q.** What about the viability at 0.01 µM [1, 7] of the same compound?
**A.** The viability at 0.01 µM was 100%.

**Q.** And the activity at 0.01 µM [1, 8]?
**A.** The activity at 0.01 µM was 99.1%.

**Q.** And the activity at 0.01 µM [1, 9]?
**A.** The activity at 0.01 µM was 79.8%.

**Q.** And the activity at 0.01 µM [1, 10]?
**A.** The activity at 0.01 µM was 97.4%.

**Q.** What about the viability at 0.01 µM [1, 11] of the same compound?
**A.** The viability at 0.01 µM was 100%.

**Q.** What about the viability at 0.1 µM [1, 7] of the same compound?
**A.** The viability at 0.1 µM was 95%.

**Q.** What about the activity at 0.1 µM [1, 8] of the same compound?
**A.** The activity at 0.1 µM was 95.2%.

**Q.** And the activity at 0.1 µM [1, 9]?
**A.** Its activity at 0.1 µM is 106%.

**Q.** And the activity at 0.1 µM [1, 10]?
**A.** Its activity at 0.1 µM is 97.8%.

**Q.** And the viability at 0.1 µM [1, 11]?
**A.** Its viability at 0.1 µM is 95%.

**Q.** What about the viability at 1 µM [1, 7] of the same compound?
**A.** Its viability at 1 µM is 93.4%.

**Q.** And the activity at 1 µM [1, 8]?
**A.** Its activity at 1 µM is 93.4%.

**Q.** What about the activity at 1 µM [1, 9] of the same compound?
**A.** The activity at 1 µM was 100%.

**Q.** What about the activity at 1 µM [1, 10] of the same compound?
**A.** Its activity at 1 µM is 101%.

**Q.** What about the viability at 1 µM [1, 11] of the same compound?
**A.** Its viability at 1 µM is 93.4%.

**Q.** What about the viability at 10 µM [1, 7] of the same compound?
**A.** Its viability at 10 µM is 87.7%.

**Q.** And the activity at 10 µM [1, 8]?
**A.** Its activity at 10 µM is 87.6%.

**Q.** What about the activity at 10 µM [1, 9] of the same compound?
**A.** The activity at 10 µM was 110%.

**Q.** What about the activity at 10 µM [1, 10] of the same compound?
**A.** The activity at 10 µM was 103%.

**Q.** And the viability at 10 µM [1, 11]?
**A.** Its viability at 10 µM is 87.7%.

**Q.** And the viability at 100 µM [1, 7]?
**A.** Its viability at 100 µM is 75.3%.

**Q.** What about the activity at 100 µM [1, 8] of the same compound?
**A.** The activity at 100 µM was 74.9%.

**Q.** What about the activity at 100 µM [1, 9] of the same compound?
**A.** Its activity at 100 µM is 151%.

**Q.** What about the activity at 100 µM [1, 10] of the same compound?
**A.** Its activity at 100 µM is 98.8%.

**Q.** What about the viability at 100 µM [1, 11] of the same compound?
**A.** Its viability at 100 µM is 76.9%.

**Q.** And the minimal effective concentration ([1]; read-out: endo.cyto.24hr POD)?
**A.** Its minimal effective concentration is 0.33 µM.

**Q.** And the minimal effective concentration ([1]; read-out: endo.mito.24hr POD)?
**A.** The minimal effective concentration was 0.33 µM.

**Q.** What about the minimal effective concentration ([1]; read-out: endo.mitoint.24hr POD) of the same compound?
**A.** Its minimal effective concentration is 10.2 µM.

**Q.** And the minimal effective concentration ([1]; read-out: endo.nma.24hr POD)?
**A.** Its minimal effective concentration is 100 µM.

**Q.** What about the minimal effective concentration ([1]; read-out: endo.tc.24hrs POD) of the same compound?
**A.** Its minimal effective concentration is 0.34 µM.
